Source: patent publication US20230417767A1, “COMPOSITIONS AND METHODS FOR THE DIAGNOSIS AND TREATMENT OF AGE-RELATED MACULAR DEGENERATION” (Georgetown University, priority 2016, published 2023)
Each block holds one compound with its values, some of them ahead of it.

Key:
AMD RPE = assay: Cell viability of AMD RPE under oxidative stress; type: cell-based, human; details: FIG. 16E-G
Description: RPE were cultured at 80-90% confluency in 96-well plates, at 37° C. with 5% O2 and 5% CO2. Oxidative stress was induced with different concentrations of H2O2 ranging from 0-10 mM for 24 or 48 hrs, followed by cell viability measurements. Cell viability was measured following a 30 min incubation with the PestoBlue Reagent (Life Technologies) of RPE monolayers cultured on 96-well plates, 6 wells used for each sample. Fluorescence measurements were performed using an Ultra384 plate reader with 535 nm excitation and 612 nm emission wavelengths.

APOE = APOE expression in retina of mice fed high fat diet containing compound; type: in vivo; details: compound in high fat diet (telmisartan, UPF 0.001%; fenofibrate 0.1%), 11 weeks, FIG. 22
Description: (§1) Quantitative Real-Time Polymerase Chain Reaction Analyses. Total RNA was extracted with the RNeasy kit (Qiagen), treated with RNase-free DNase I (Qiagen), and reverse transcribed with oligo-dT using the SuperScript III cDNA synthesis kit (Invitrogen). Quantitative PCR was performed with the QuantiTect SYBR Green PCR Kit (Qiagen). Specific primers for each gene were designed with the PrimerQuest software (Integrated DNA Technologies), and the cDNA sequences of each gene (GenBank) were used to produce 100-250 bp PCR amplicons that span one or more exon/intron boundaries.
(§2) The HET mice described in Example 2 were administered various compounds to determine the effects of these compounds on the development of AMD. In the High Fat Diet (HFD) experiments, 5 wild type (WT) mice, 5 PGC-1α+/−mice, 5 PGC-1α−/−mice at 2 months old with C57BL/6 background were fed with regular diet (RD) or high fat diet for 16 weeks. […]
(§3) To test the effects of telmisartan, fenofibrate and UPF 1069 on mice, 5 wild type (WT) mice, 5 PGC-1α+/−mice, 5 PGC-1α−/−mice at 2 months old were administrated with RD, HFD, or HFD (Testdiet, 5015) containing one of the three compounds. […] 11 weeks after beginning of administration of the compounds, the mice were sacrificed, the body weight was measured, the eyes were enucleated, with the retinas being extracted and processed for RNA isolation. […]

APP = APP expression in retina of mice fed high fat diet containing compound; type: in vivo; details: compound in high fat diet (telmisartan, UPF 0.001%; fenofibrate 0.1%), 11 weeks, FIG. 21
Description: as §1, §2, §3

PGC-1α [1] = assay: PGC-1α gene expression in retinal pigment epithelium (RPE); type: cell-based, human; details: FIG. 16A-C
From the text: (§4) FIGS. 1-3 show various representations of an in vitro disease model of AMD. A total of 10 eyes from 5 organ donors clinically diagnosed with dry AMD and 10 eyes from 5 clinically normal donors were purchased from Lions Medical Eye Bank. RPE were isolated according to established protocols (Maminishkis et al., 2006) and cultured in Epithelial Cell Media (EpiCM, ScienCell) under controlled oxygen (5%) and CO2 (5%) conditions. Studies have shown that low (physiological) oxygen concentration promotes RPE growth (Knorr et al., 1993) and better protects from ROS-induced damage in vitro. RPE were then purified with Magnetic-Activated Cell Sorting (MACS) by positive selection for epithelial cells using anti-BEST1 antibody (Abcam) and anti-E-cadherin (Miltenyi Biotech); and by negative selection using a fibroblast-specific antibody (Miltenyi Biotech) to remove fibroblasts. The purity of the sorted cells was confirmed by immunostaining with anti-ZO-1 and anti-BEST1, and Real-Time PCR for RPE specific genes. The RPE cells were grown in Epithelial Cell Media (EpiCM, ScienCell) at 37° C., with 5% O2 and 5% CO2. […] Skin fibroblasts from a dry AMD patient were used to generate iPSC-RPE. Genotyping of the donors and the patient is represented in FIG. 3.
(§5) Quantitative Real-Time Polymerase Chain Reaction Analyses. […] Quantitative PCR was performed with the QuantiTect SYBR Green PCR Kit (Qiagen). […]

APOB = APOB expression in retina of mice fed high fat diet containing compound; type: in vivo; details: PGC-1α+/− (HET) mice; compound in high fat diet (telmisartan, UPF 0.001%; fenofibrate 0.1%), 11 weeks; FIG. 20
Description: as §1, §2, §3

AMPK = AMPK phosphorylation in RPE; type: cell-based, human; details: FIG. 16D
From the text: as §4, with “Genotyping of the donors and the patient is represented in FIG. 3.” left out
Immunoblot analysis. […] Protein concentrations were measured by Bradford assay (Bio-Rad). Protein samples were analyzed using the NuPAGE electrophoresis and XCell Western blot system (Invitrogen). […]

PGC-1α [2] = assay: PGC-1α gene expression in mice fed high fat diet containing compound; type: in vivo; details: compound in high fat diet (telmisartan, UPF 0.001%; fenofibrate 0.1%), 11 weeks, FIG. 24
Description: as §1, §2, §3

[3] = test system: Acyl-CoA Dehydrogenase (ACADM); assay: Acyl-CoA Dehydrogenase (ACADM) expression in RPE; type: cell-based, human; details: FIG. 16A-C
From the text: as §4, §5

APOJ = APOJ expression in retina of mice fed high fat diet containing compound; type: in vivo; details: genotype (WT or HET) not stated; telmisartan 0.001% in high fat diet, 11 weeks; FIG. 23A
Description: as §1, §2, §3

Structure (SMILES): O=C(O)c1cc(C(=O)O)c2c(n1)C(=O)C(=O)c1cc(C(=O)O)[nH]c1-2 [PQQ, pyrroloquinoline quinone]
cell viability under oxidative stress (AMD RPE): increasing

Acyl-CoA Dehydrogenase (ACADM) expression ([3]; AMD RPE): increasing | Acyl-CoA Dehydrogenase (ACADM) expression ([3]; normal (control) RPE): increasing
Structure (SMILES): CCCc1nc2c(C)cc(-c3nc4ccccc4n3C)cc2n1Cc1ccc(-c2ccccc2C(=O)O)cc1 [telmisartan]
APOE levels in the retina (APOE; PGC-1α+/− (HET) mice): significantly reduce | APOE levels in the retina (APOE; WT mice): significantly reduce | APP levels in the retina (APP; PGC-1α+/− (HET) mice): unable to decrease | APP levels in the retina (APP; WT mice): significant increase | PGC-1α expression (PGC-1α [1]; AMD RPE): increasing | PGC-1α expression (PGC-1α [1]; normal (control) RPE): increasing | APOB levels in the retina (APOB): significantly reduce | AMPK phosphorylation (AMPK; AMD RPE): inducing | AMPK phosphorylation (AMPK; normal (control) RPE): inducing | cell viability under oxidative stress (AMD RPE): increasing | PGC-1α expression (PGC-1α [2]; PGC-1α+/− (HET) mice): significantly Increase | PGC-1α expression (PGC-1α [2]; WT mice): significantly increased | APOJ levels (APOJ): did not reduce
